The results in this text go back to patent publication US20230085362A1, “PYRIMIDINE COMPOUNDS AND USE THEREOF” (National Health Research Institutes, priority 2021, published 2023).

Series [1] deals with Primary DRG cells. Kind of series: Neurite outgrowth assay (group B), oxaliplatin-induced neurotoxicity. Particulars: for Neurite outgrowth (%): % of untreated control; for neuroprotection against oxaliplatin-induced neurotoxicity: 1 µM compound; for Neurite outgrowth (%) A-B: difference between compound 1 µM + oxaliplatin 100 µM and oxaliplatin 100 µM alone. It is filed as cell-based, C57BL/6 J mice. The method, then: (§1) Cell culture. For primary culture, dorsal root ganglia (“DRG”) were removed from 7-weeks-old C57BL/6 J mice and digested with 0.1% collagenase (Sigma-Aldrich, St. Louis, MO) for 1 hour, followed by 0.25% trypsin treatment for 25 minutes. The dissociated neuron cultures were plated at a density of 2.5×10^4 cells per well in a 96 well optics plates (CLS3614; Sigma-Aldrich) precoated with 1 mg/mL poly-D-lysine (A-003-M; Sigma-Aldrich) for 3 hours. Primary DRG cells were grown in DMEM-F12 (11320033; Gibco®, ThermoFisher Scientific, Waltham, MA) supplemented with 10% fetal bovine serum (FBS, 26140079; Gibco®, ThermoFisher). These cells were maintained at 37° C. in an environment containing 5% CO2.
(§2) Neurite outgrowth assay (group A). Primary DRG cells were incubated with one of the Example 2 compounds at 1 µM for 24 hours, and then treated with 0.05 µM paclitaxel for another 24 hours. After the paclitaxel treatment, the primary DRG cells were washed by PBS and then fixed with 4% paraformaldehyde (PFA, P6148; Sigma-Aldrich) for 15 minutes. The DRG cells thus fixed were permeabilized by 0.05% Triton X-100 in PBS for 20 minutes and blocked with 3% bovine serum albumin (BSA; Sigma-Aldrich, USA) at room temperature for 1 hour. Subsequently, DRG cells were stained with rabbit anti-β III tubulin (1:600; Cell Signaling, USA) and mouse anti-NeuN monoclonal antibody (1:400; Millipore, USA) overnight at 4° C. The samples were then washed by PBS and reacted with secondary antibodies (Alexa-488 and Alexa-594 1:600; Invitrogen, CA) at room temperature for 1 hour. For image acquisition and analysis of DRG neurite outgrowth, images of stained cells were automatically acquired using 10X objective by Image Xpress Micro wide field fluorescent microscope (Molecular Devices, USA). A control was obtained following the same procedure except that the DRG cells were not treated with a compound or paclitaxel. Neurite outgrowth was measured as a percentage of outgrowth as compared to the control.
Neurite outgrowth assay (group B). Primary DRG cells were incubated with compounds 17, 47, 97, 98, 101, 104 at 1 µM for 24 hours, and then treated with 100 µM oxaliplatin for another 48 hours. The treatment was obtained following the same procedure as group A except that the DRG cells were treated with a oxaliplatin. Neurite outgrowth was measured as a percentage of outgrowth as compared to the control.

The subject of series [2] is Primary DRG cells. The series is described as follows: Neurite outgrowth assay (group A), paclitaxel-induced neurotoxicity. Type of series: cell-based, C57BL/6 J mice. The settings on record: for neuroprotection against paclitaxel-induced neurotoxicity: 1 µM compound, 0.05 µM paclitaxel; for activity at 1 µM: Mus musculus, DRG cells, 1 µM compound 24 h then 0.05 µM paclitaxel 24 h, % of untreated control, read-out: Neurite outgrowth (%); for Neurite outgrowth (%) A-B (extent of protection): difference between compound 1 µM + paclitaxel 0.05 µM and paclitaxel 0.05 µM alone. The method, then:
Compounds of this invention were evaluated using the neurite outgrowth assay as described in Chen et al., Scientific Reports, 7, 45366, DOI: 10.1038/srep45366 (2017).
as §1, §2
The difference between A and B indicates an extent of protection provided by the compound.

The subject of series [3] is paclitaxel-induced neuropathy. The settings on record: 5 mg/kg i.p. one hour before paclitaxel 4.5 mg/kg i.p., days 0, 2, 4, 6. The method, then:
Compound 47 was used in an in vivo mouse behavioral study for treating paclitaxel-induced neuropathy following a procedure described in Chen et al., Scientific Reports, 7, 45366, DOI: 10.1038/srep45366 (2017).
After housing adaptions, 7-weeks-old C57BL/6J female mice (weight range: 18-20 g) were treated as follows. Paclitaxel (4.5 mg/kg, Bristol-Myers Squibb, New York, New York), vehicle (saline), or Compound 47 (5, 10 or 20 mg/kg) was injected intraperitoneally on four alternative days (days 0, 2, 4, and 6). Two behavior tests were performed: (1) mechanical hyperalgesia was evaluated using a von Frey filament (Part #2390, IITC Inc., CA) and (2) thermal sensitivity was studied using a tail immersion assay (water temperature: 48-49° C.). See Chen et al., Mol. Cancer. Ther. 14, 2206-14 (2015). The baseline measurement of each behavior test was established prior to treatments. Five sessions were measured weekly.
The neuroprotective effects of Compound 47 in a mouse model was measured following a protocol with predetermined drug administration and behavioral tests. The basal levels of each behavioral assay were obtained prior to the treatment. […]
A von Frey filament test was performed to detect allodynia. […] Thermal sensation was assessed using a tail immersion test by checking tail withdrawal latency. […]

[4] abbreviates: DRG cells, 1 µM compound 24 h then 100 µM oxaliplatin 48 h.

Take `O=C1[O][Pt]2([NH][C@@H]3CCCC[C@H]3[NH]2)[O]C1=O` [oxaliplatin, reference compound]: the “neurotoxicity to DRG neurite outgrowth” value in the series with Primary DRG cells [1] (100 µM oxaliplatin 48 h) is recorded as “inhibiting neurite outgrowth”. For the same compound, in the series on Primary DRG cells [1] (100 µM oxaliplatin, across experiments of Table 2), the “inhibition of DRG neurite outgrowth” value was 60%-71. The “Neurite outgrowth (%)” value with Primary DRG cells [1] (DRG cells treated with 100 µM oxaliplatin only, comparator of the compound in the same table row) amounted to 29%.
`CCn1nnnc1CNc1nc(N2CCOCC2)cc(N2CCOCC2)n1` [Compound 97]: in the series with Primary DRG cells [2], the “neuroprotection against paclitaxel-induced neurotoxicity” value is listed as “neuroprotection was provided”, the activity at 1 µM turned out to be 45% and the “Neurite outgrowth (%) A-B (extent of protection)” value is given as 5%. In addition, the “neuroprotection against oxaliplatin-induced neurotoxicity” value with Primary DRG cells [1] (100 µM oxaliplatin) is on record as “neuroprotection was provided”. For the same compound, the “Neurite outgrowth (%)” value in the series with Primary DRG cells [1] (setting [4]) turned out to be 31%. Besides, the “Neurite outgrowth (%) A-B” value with Primary DRG cells [1] turned out to be 2%.
In the case of `CC(C)NCCCn1cc(CNc2nc(NC3CCN(Cc4ccccc4)CC3)cc(N3CCOCC3)n2)nn1` [Compound 17], in the series with Primary DRG cells [2], the “neuroprotection against paclitaxel-induced neurotoxicity” value is reported as “neuroprotection was provided”, the activity at 1 µM was determined as 50% and the “Neurite outgrowth (%) A-B (extent of protection)” value is 3%. Besides, in the series on Primary DRG cells [1] (setting [4]), the “Neurite outgrowth (%)” value stood at 26%. Also, the “Neurite outgrowth (%) A-B” value in the series with Primary DRG cells [1] is recorded as -3%.
In the case of `O=P(O)(O)CCN1CCC(Nc2cc(N3CCOCC3)nc(NCc3cn(CCCO)nn3)n2)CC1` [Compound 47], in the series on Primary DRG cells [2] (1 µM compound vs 0.05 µM paclitaxel treated cells), the “improvement of neurite outgrowth” value was “more than 18%”. Moreover, in the series with Primary DRG cells [2], the “neuroprotection against paclitaxel-induced neurotoxicity” value is “neuroprotection was provided”, the activity at 1 µM is 65% and the “Neurite outgrowth (%) A-B (extent of protection)” value was determined as 18%. Besides, the “improvement of neurite outgrowth” value in the series with Primary DRG cells [1] (1 µM compound vs 100 µM oxaliplatin treated cells) is reported as “more than 7%”. In addition, the “neuroprotection against oxaliplatin-induced neurotoxicity” value in the series with Primary DRG cells [1] (100 µM oxaliplatin) is listed as “neuroprotection was provided”. Also, the “Neurite outgrowth (%)” value in the series on Primary DRG cells [1] (setting [4]) is given as 47%. Further, the “Neurite outgrowth (%) A-B” value in the series on Primary DRG cells [1] is 7%. The “pain threshold (von Frey)” value in series [3] is on record as “provided protection”.
Take `CCn1nnc(CNc2nc(N3CCOCC3)cc(N3CCOCC3)n2)n1` [Compound 98]: in the series with Primary DRG cells [2], the “neuroprotection against paclitaxel-induced neurotoxicity” value is “neuroprotection was provided”, the activity at 1 µM came out at 45% and the “Neurite outgrowth (%) A-B (extent of protection)” value was determined as 5%. Further, in the series on Primary DRG cells [1] (setting [4]), the “Neurite outgrowth (%)” value is 26%. The “Neurite outgrowth (%) A-B” value with Primary DRG cells [1] is reported as -3%.
Take `CCn1nnc(CNc2nc(NC3CCN(CCC(=O)O)CC3)cc(N3CCOCC3)n2)n1` [Compound 101]: in the series with Primary DRG cells [2], the “neuroprotection against paclitaxel-induced neurotoxicity” value is “neuroprotection was provided”, the activity at 1 µM is 53% and the “Neurite outgrowth (%) A-B (extent of protection)” value is 6%. Also, the “neuroprotection against oxaliplatin-induced neurotoxicity” value in the series on Primary DRG cells [1] (100 µM oxaliplatin) is “neuroprotection was provided”. The “Neurite outgrowth (%)” value in the series with Primary DRG cells [1] (setting [4]) worked out at 31%. In addition, the “Neurite outgrowth (%) A-B” value in the series with Primary DRG cells [1] is 2%.
For `OCCCc1cc(CNc2nc(NC3CCNCC3)cc(N3CCOCC3)n2)no1` [Compound 104], in the series with Primary DRG cells [2], the “neuroprotection against paclitaxel-induced neurotoxicity” value is reported as “neuroprotection was provided”, the activity at 1 µM stood at 45% and the “Neurite outgrowth (%) A-B (extent of protection)” value came to 5%. In addition, the “neuroprotection against oxaliplatin-induced neurotoxicity” value with Primary DRG cells [1] (100 µM oxaliplatin) was “neuroprotection was provided”. Besides, the “Neurite outgrowth (%)” value with Primary DRG cells [1] (setting [4]) worked out at 34%. Also, the “Neurite outgrowth (%) A-B” value in the series on Primary DRG cells [1] stood at 5%.
